From ChEMBL document CHEMBL4823252 (J Med Chem, 2021)

Columns and labels:
MV4-11 = assay: Antiproliferative activity against human MV4-11 cells incubated for 72 hrs by Cell Counting Kit-8 assay; format: functional, cell-based; settings: MV4-11, 72 h
MOLM-13 [1] = assay: Antiproliferative activity against human MOLM-13 cells incubated for 72 hrs by Cell Counting Kit-8 assay; format: functional, cell-based; settings: MOLM-13, 72 h
[2] = target: T1, Receptor-type tyrosine-protein kinase FLT3 (Homo sapiens, UniProt P36888); assay: Inhibition of FLT3 (unknown origin) incubated for 30 mins in presence of ATP by mobility shift assay
T1 sequence (P36888 whole entry): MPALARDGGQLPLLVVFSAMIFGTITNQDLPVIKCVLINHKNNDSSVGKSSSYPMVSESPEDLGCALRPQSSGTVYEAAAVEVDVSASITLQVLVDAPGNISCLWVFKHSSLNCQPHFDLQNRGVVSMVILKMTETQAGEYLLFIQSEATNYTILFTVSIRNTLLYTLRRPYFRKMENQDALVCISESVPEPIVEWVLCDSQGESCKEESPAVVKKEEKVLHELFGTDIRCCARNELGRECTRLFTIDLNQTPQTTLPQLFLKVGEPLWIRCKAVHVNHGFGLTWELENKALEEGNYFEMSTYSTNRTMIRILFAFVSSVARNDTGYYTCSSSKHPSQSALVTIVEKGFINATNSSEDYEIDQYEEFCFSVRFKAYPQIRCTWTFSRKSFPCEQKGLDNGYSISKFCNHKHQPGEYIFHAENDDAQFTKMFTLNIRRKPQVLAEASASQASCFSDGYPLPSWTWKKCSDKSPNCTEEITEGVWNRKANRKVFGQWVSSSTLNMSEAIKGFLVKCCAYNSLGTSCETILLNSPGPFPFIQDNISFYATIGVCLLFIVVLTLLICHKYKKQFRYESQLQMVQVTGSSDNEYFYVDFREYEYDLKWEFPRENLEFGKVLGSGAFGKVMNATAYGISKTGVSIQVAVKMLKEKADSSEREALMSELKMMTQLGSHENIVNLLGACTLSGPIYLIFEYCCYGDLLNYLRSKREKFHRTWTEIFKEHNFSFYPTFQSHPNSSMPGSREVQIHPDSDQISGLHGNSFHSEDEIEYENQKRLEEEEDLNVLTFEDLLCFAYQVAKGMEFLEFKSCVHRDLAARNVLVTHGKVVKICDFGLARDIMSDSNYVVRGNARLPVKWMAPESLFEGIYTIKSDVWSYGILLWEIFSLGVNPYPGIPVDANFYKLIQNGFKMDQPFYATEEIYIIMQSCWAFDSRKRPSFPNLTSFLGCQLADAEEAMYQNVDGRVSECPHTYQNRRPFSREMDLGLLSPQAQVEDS

[3] = Chemical stability of compound incubated for 90 days by HPLC analysis; format: physicochemical; settings: time 90 day; read-out: Stabilty
MOLM-13 [4] = assay: Antiproliferative activity against human sunitinib-resistant MOLM-13 cells at 1 nM incubated for 72 hrs by CCK8 assay relative to control; format: functional
MOLM-13 [5] = assay: Antiproliferative activity against human quizartinib-resistant MOLM-13 cells at 111 nM incubated for 72 hrs by CCK8 assay relative to control; format: functional
MOLM-13 [6] = assay: Antiproliferative activity against human sunitinib-resistant MOLM-13 cells at 333 nM incubated for 72 hrs by CCK8 assay relative to control; format: functional
MOLM-13 [7] = assay: Antiproliferative activity against human quizartinib-resistant MOLM-13 cells at 333 nM incubated for 72 hrs by CCK8 assay relative to control; format: functional
MOLM-13 [8] = assay: Antiproliferative activity against human sunitinib-resistant MOLM-13 cells at 4 nM incubated for 72 hrs by CCK8 assay relative to control; format: functional
MOLM-13 [9] = assay: Antiproliferative activity against human sunitinib-resistant MOLM-13 cells at 111 nM incubated for 72 hrs by CCK8 assay relative to control; format: functional
MOLM-13 [10] = assay: Antiproliferative activity against human quizartinib-resistant MOLM-13 cells at 4 nM incubated for 72 hrs by CCK8 assay relative to control; format: functional
MOLM-13 [11] = assay: Antiproliferative activity against human quizartinib-resistant MOLM-13 cells at 37 nM incubated for 72 hrs by CCK8 assay relative to control; format: functional
MOLM-13 [12] = assay: Antiproliferative activity against human quizartinib-resistant MOLM-13 cells at 12 nM incubated for 72 hrs by CCK8 assay relative to control; format: functional
MOLM-13 [13] = assay: Antiproliferative activity against human sunitinib-resistant MOLM-13 cells at 12 nM incubated for 72 hrs by CCK8 assay relative to control; format: functional
MOLM-13 [14] = assay: Antiproliferative activity against human sunitinib-resistant MOLM-13 cells at 37 nM incubated for 72 hrs by CCK8 assay relative to control; format: functional
MOLM-13 [15] = assay: Antiproliferative activity against human quizartinib-resistant MOLM-13 cells at 1000 nM incubated for 72 hrs by CCK8 assay relative to control; format: functional
MOLM-13 [16] = assay: Antiproliferative activity against human sunitinib-resistant MOLM-13 cells at 1000 nM incubated for 72 hrs by CCK8 assay relative to control; format: functional
MOLM-13 [17] = assay: Antiproliferative activity against human quizartinib-resistant MOLM-13 cells at 1 nM incubated for 72 hrs by CCK8 assay relative to control; format: functional

| SMILES | IC50 (MV4-11) [nM] | IC50 (MOLM-13 [1]) [nM] | IC50 [2] [nM] | other results |
| --- | --- | --- | --- | --- |
| Cc1c(NC(=O)CCN2CCCC2)c[nH]c1/C=C1\C(=O)Nc2ccc(Cl)cc21 | 20.9 | 64.5 |  |  |
| COc1ccc2c(c1)/C(=C/c1[nH]cc(NC(=O)CCN3CCCC3)c1C)C(=O)N2 | 28.9 | 55.7 |  |  |
| Cc1c(NC(=O)[C@H]2CCCN2)c[nH]c1/C=C1\C(=O)Nc2ccc(F)cc21 | 69.9 | 70.8 |  |  |
| Cc1c(NC(=O)CC2CCCN2)c[nH]c1/C=C1\C(=O)Nc2ccc(F)cc21 (stereo unspecified) | 50 | 35.9 | 2.7 |  |
| Cc1c(NC(=O)CN(C)C)c[nH]c1/C=C1\C(=O)Nc2ccc(F)cc21 | 78.6 | 36 | 2 |  |
| CC(C)(C)c1cc(NC(=O)Nc2ccc(-c3cn4c(n3)sc3cc(OCCN5CCOCC5)ccc34)cc2)no1 [QUIZARTINIB] |  |  |  | Activity (MOLM-13 [4]): 1.4%; Activity (MOLM-13 [5]): -5.8%; Activity (MOLM-13 [6]): 5.7%; Activity (MOLM-13 [7]): -4.1%; Activity (MOLM-13 [8]): -0.9%; Activity (MOLM-13 [9]): -1.5%; Activity (MOLM-13 [10]): -0.4%; Activity (MOLM-13 [11]): -0.8%; Activity (MOLM-13 [12]): 2.9%; Activity (MOLM-13 [13]): 2.8%; Activity (MOLM-13 [14]): 0.2%; Activity (MOLM-13 [15]): 1.3%; Activity (MOLM-13 [16]): 10.9%; Activity (MOLM-13 [17]): 5.2% |
| Cc1c(NC(=O)CNC2CCCC2)c[nH]c1/C=C1\C(=O)Nc2ccc(F)cc21 | 125 | 158 |  |  |
| CCCNCCC(=O)Nc1c[nH]c(/C=C2\C(=O)Nc3ccc(F)cc32)c1C | 34.7 | 57.4 | 1.7 |  |
| Cc1c(NC(=O)C2CCNCC2)c[nH]c1/C=C1\C(=O)Nc2ccc(F)cc21 | 177 | 143 |  |  |
| Cc1c(NC(=O)CN2CCN(C)CC2)c[nH]c1/C=C1\C(=O)Nc2ccc(F)cc21 | 51.8 | 48.4 | 2.7 |  |
| Cc1c(NC(=O)CCN2CCOCC2)c[nH]c1/C=C1\C(=O)Nc2ccc(F)cc21 | 133 | 173 |  |  |
| Cc1c(NC(=O)C2CCCCN2)c[nH]c1/C=C1\C(=O)Nc2ccc(F)cc21 (stereo unspecified) | 54.4 | 59.2 | 2.4 |  |
| Cc1c(/C=C2\C(=O)Nc3ccc(F)cc32)[nH]c(Cl)c1NC(=O)[C@@H]1CCCN1 | 50.7 |  |  | remaining at 2160 h [3]: 95.4% |

More lines, main results first:

| IC50 (MV4-11) [nM] | IC50 (MOLM-13 [1]) [nM] | IC50 [2] [nM] | SMILES | other results |
| --- | --- | --- | --- | --- |
| 37.2 | 35.9 | 2.5 | Cc1c(NC(=O)[C@@H]2CCCN2)c[nH]c1/C=C1\C(=O)Nc2ccc(F)cc21 | remaining at 2160 h [3]: 99.1% |
| 29.2 | 44.3 | 0.6 | Cc1c(NC(=O)CCNC2CCCC2)c[nH]c1/C=C1\C(=O)Nc2ccc(F)cc21 |  |
| 44.8 | 58.2 | 1.8 | Cc1c(NC(=O)CCNC(C)(C)C)c[nH]c1/C=C1\C(=O)Nc2ccc(F)cc21 |  |
| 81.7 | 176 |  | CCN(CC)CC(=O)Nc1c[nH]c(/C=C2\C(=O)Nc3ccc(F)cc32)c1C |  |
| 77 | 61.9 | 1.4 | Cc1c(NC(=O)CN2CCCC2)c[nH]c1/C=C1\C(=O)Nc2ccc(F)cc21 |  |
| 32.4 | 57 | 1.7 | Cc1c(NC(=O)CCN(C)C)c[nH]c1/C=C1\C(=O)Nc2ccc(F)cc21 |  |
| 61.5 |  |  | Cc1c(/C=C2\C(=O)Nc3ccc(F)cc32)[nH]c(Br)c1NC(=O)[C@@H]1CCCN1 | remaining at 2160 h [3]: 96.6% |
| 252 | > 1000 |  | Cc1c(NC(=O)CN2CCCCC2)c[nH]c1/C=C1\C(=O)Nc2ccc(F)cc21 |  |
| 40.9 |  |  | Cc1[nH]c(/C=C2\C(=O)Nc3ccc(F)cc32)c(C)c1NC(=O)[C@@H]1CCCN1 | remaining at 2160 h [3]: 80.8% |
| 58.6 | 71.5 |  | Cc1c(NC(=O)CCN2CCCC2)c[nH]c1/C=C1\C(=O)Nc2ccc(Br)cc21 |  |
| 44.2 | 64.2 | 1.3 | Cc1c(NC(=O)CCN2CCCCC2)c[nH]c1/C=C1\C(=O)Nc2ccc(F)cc21 |  |
| 34.5 | 51.2 | 2.5 | CCNCCC(=O)Nc1c[nH]c(/C=C2\C(=O)Nc3ccc(F)cc32)c1C |  |
| 30.3 | 54.3 | 2 | CCN(CC)CCC(=O)Nc1c[nH]c(/C=C2\C(=O)Nc3ccc(F)cc32)c1C |  |
| 41.3 | 47.5 | 3 | Cc1c(NC(=O)CCN2CCN(C)CC2)c[nH]c1/C=C1\C(=O)Nc2ccc(F)cc21 |  |
